Patent US11717499B2 (priority 2011, dated 2023)
“Also recorded” adds a separate entry of the source. Read-outs that look alike come from different tables or passages of the source. Marks after values point to notes of the source that are not given here.

What was measured:
[1] = rats, cited from earlier work
[2] = tested on: P450-dependent monooxygenase or phase II enzyme activities; details: rat; cited from earlier work
[3] = tested on: LPS-triggered PTB; details: for Number of pups retained / Number of pups dropped: 50 mg/kg LPS
Description: Mice were then randomly assigned to the control group or one of five treatment groups. […] Additionally, a sixth group of four animals received i.p. injections of 0.5 ml PBS in lieu of LPS at the same time points and served as sham (Table 1).
After the injection at t=10 hours, mice were continually monitored; time of delivery of the first pup and number of pups dropped over time were recorded. […] All mice were sacrificed by carbon dioxide asphyxiation. The mice were autopsied at the end of experiments to confirm pregnancy and to determine the number of pups retained in utero. Placenta and uteri were harvested and stored.

[4] = tested on: TNF-α; experiment: Immunoblot of TNF-α expression in placental tissue; format: in vivo; details: DMA rescued mice vs LPS-triggered PTB mice, p<0.001
Excerpt: (§1) The probe was thoroughly cleaned after each sample.
(§2) Chemifluorescence was detected by exposure to an autoradiography film.

[5] = tested on: IL-1β; experiment: Immunoblot of IL-1β expression in placental tissue; format: in vivo; details: DMA rescued mice vs LPS-triggered PTB mice, p<0.01
Excerpt: as §1, §2

[6] = tested on: IL-6; experiment: Immunoblot of IL-6 expression in placental tissue; format: in vivo; details: DMA rescued mice vs LPS-triggered PTB mice, p<0.05
Excerpt: as §1, §2

Row | SMILES | Plasma level ([1]; after 24 hours) | Plasma half life [1] | Induction of hepatic monooxygenases [2] | Number of pups retained ([3]; DMA 0.2 mg/kg) | Number of pups dropped ([3]; DMA 0.2 mg/kg, n=47 pups) | Number of pups retained ([3]; DMA 0.39 mg/kg) | Number of pups retained ([3]; DMA 0.78 mg/kg) | Number of pups retained ([3]; DMA 1.56 mg/kg) | Number of pups dropped ([3]; DMA 1.56 mg/kg, n=47 pups) | Number of pups retained ([3]; DMA 3.1 mg/kg) | Number of pups dropped ([3]; DMA 3.1 mg/kg, n=52 pups) | Prevention of PTB ([3]; highest doses of DMA, 3.1 and 1.56 mg/kg) | TNF-α expression in placentas [4] | IL-1β expression in placentas [5] | IL-6 expression in placentas [6]
1 | CNC(C)=O [MMA, N-monomethylacetamide] | a significant amount of MMA was still present | about 2.2 hours | did not induce any hepatic monooxygenases |  |  |  |  |  |  |  |  |  |  |  | 
2 | CC(=O)N(C)C [DMA, N,N-dimethylacetamide] |  |  |  | 35 | 12 | 41 | 69 | 47 | 0*** | 52 | 0*** | 100% | suppressed | significantly reduced; also recorded: suppressed | suppressed
